Results reported in paper PMC10154249, “Unique progerin C-terminal peptide ameliorates Hutchinson–Gilford progeria syndrome phenotype by rescuing BUBR1” (Nature Aging, 2023).

Assays:
HGADFN003 cells = test: Effect of UPCP on HGADFN003 senescence after BUBR1 depletion (shBUBR1#3): SA-β-gal, Ki67, aneuploid cells; type: cell-based, human; conditions: for Relative percentage of SA-β-gal positive cells: Fig. 5g; for Relative percentage of SA-β-gal positive cells / Relative percentage of Ki67 positive cells / Relative percentage of aneuploid cells: HGADFN003; for Relative percentage of Ki67 positive cells: Fig. 5i; for Relative percentage of aneuploid cells: Fig. 5j
Protocol: Immunofluorescence was performed as described previously. Cells were plated on cover slips in 12-well plates, left overnight before the treatment. Cells were fixed in 1% formaldehyde in culture medium for 10 min at 37 °C and permeabilized with 0.2% Triton X-100 in PBS for 10 min at room temperature. Cells were washed twice in PBS and blocked for 1 h with 5% BSA in PBS and then incubated with primary antibodies at 4 °C overnight, washed three times in PBS and incubated with secondary antibodies for 1 h at room temperature. Cell nuclei were counterstained with a 500 nM concentration of 4,6-diamidino-2-phenylindole (DAPI) (Sigma). Images were acquired by a fluorescence microscope (OLYMPUS FV-1000, Carl Zeiss LSM880 or Leica DMi8) and analyzed with software NIS-Elements AR v.5.0.1 (Nikon), FLUOVIEW v.4.2b (OLYMPUS), ZEN v.2.3 SP1 (Carl Zeiss) and Leica Application Suite X v.3.6.0.24 (Leica). Cells were quantified by investigators who were blinded to the identity of the analyzed cell.
(§1) SA-β-gal staining was performed as previously described. Cells were fixed in 0.5% glutaraldehyde for 15 min at room temperature, washed three times with PBS (pH 6.0) containing 1 mM MgCl2 and exposed overnight 37 °C to containing 1 mg ml^–1 5-bromo-4-chloro-3-indolyl-β-D-galactopyranoside (MCE, catalog no. HY-15934), 0.12 mM potassium ferrocyanide (Sigma, catalog no. P3289), 0.12 mM potassium ferricyanide (Sigma, catalog no. P8131) and 1 mM MgCl2 PBS buffer (pH 6.0). Cells were washed three times with H2O and observed under a microscope (OLYMPUS CKX53). SA-β-gal positive cells were quantified by investigators who were blinded to the identity of the analyzed cell.
For the metaphase chromosome spread assay, 1.5 × 10^6 cells were seeded in a 6 cm dish and incubated for 24 h with fresh medium. Then, colchicine was added to a final concentration of 0.2 μg ml^–1 and the cells were incubated at 37 °C for 2 h. After digestion, we collected and rinsed the cells with PBS. The cells were centrifuged at 160g for 10 min. Then, 1 M KCl was added to a final concentration of 0.075 mol l^–1 and the samples were incubated at 37 °C for 20 min. The cells were centrifuged, and the supernatant aspirated. The pellet was resuspended, and 1 ml methanol:glacial acetic acid (3:1) solution was added. The sample was rested at room temperature for 10 min. Then, the cells were centrifuged at 160g for 10 min. The supernatant was aspirated, and the pellet resuspended in 1 ml fixative for 30 min. The cells were centrifuged and the pellet was suspended in 1 ml fixative again for 30 min. The cells were centrifuged at 160g for 10 min and the supernatant aspirated. The pellet was then resuspended in a small volume of fixative (typically less than 500 μl) until the cell suspension appeared lightly milky. A small quantity of the cell suspension was held vertically in a pipette with the end about 10 cm above the slide. A single drop was released from this height onto the slide and allowed to air dry. The cells were then incubated with 500 nM of DAPI (Invitrogen) for 10 min. Slides were examined with an Olympus BX53 fluorescence microscope and the images were captured by using the Olympus IPP v.7.0 software. Aneuploid cells were quantified by investigators who were blinded to the identity of the analyzed cell.

senescent IMR90 cells = test: SA-β-gal staining of DNA damage-induced senescent IMR90 cells; type: cell-based, human; conditions: for SA-β-gal positive cells: UPCP 6 μM 5 days
Protocol: Fibroblasts from patients with HGPS were obtained from The Progeria Research Foundation Cell and Tissue Bank (http://www.progeriaresearch.org). The following fibroblasts were used: HGADFN003, HGADFN167, HGMDFN090 and HGFDFN168. Human dermal fibroblasts (GM00038 and AG09602) were obtained from Coriell Cell Repository (https://catalog.coriell.org). These cells were characterized by DNA fingerprinting and isozyme detection and were tested by a MycoBlue Mycoplasma Detector (Vazyme Biotech) to exclude mycoplasma contamination before the experiments. […] HGADFN003, HGADFN167, HGMDFN090, HGFDFN168, GM00038 and AG09602 were cultured in DMEM medium with 15% (v/v) fetal bovine serum (VivaCell). All cell lines were grown at 37 °C with 5% CO2 and IMR90, CRL-1474, HGADFN003, HGADFN167, HGMDFN090, HGFDFN168, GM00038 and AG09602 were cultured with 5% O2. For bleomycin-induced senescence, IMR90 cells were incubated with the culture medium containing 20 μg ml^–1 Bleomycin (Selleck, catalog no. S1214) for 2 h and analyzed 10 days later, or as otherwise indicated. For doxorubicin-induced senescence, IMR90 cells were treated twice with 100 nM Doxorubicin (Selleck, catalog no. S1208) with a 2 day interval and analyzed 10 days later, or as otherwise indicated. For ionizing radiation (IR)-induced senescence, IMR90 cells were exposed to 10 Gy Gamma rays, and analyzed 10 days later, or as otherwise indicated, the control IMR90 cells were mock irradiated. For etoposide-induced senescence, IMR90 cells incubated with the culture medium containing 10 μM Etoposide (Sigma, catalog no. E1383) for 48 h and analyzed 10 days later, or as otherwise indicated.
as §1

H-YGRKKRRQRRRYNLRSRTVLCGTCGQPADKASASGSGAQSPQNCSIM-OH (cysteines drawn unpaired) [UPCP, unique progerin C-terminal peptide]
Relative percentage of SA-β-gal positive cells (HGADFN003 cells; UPCP+shBUBR1#3, P=0.0068 vs Mock, 0.0058 vs UPCP, replicate 1): 38%
Relative percentage of SA-β-gal positive cells (HGADFN003 cells; UPCP+shBUBR1#3, P=0.0068 vs Mock, 0.0058 vs UPCP, replicate 2): 35%
Relative percentage of SA-β-gal positive cells (HGADFN003 cells; UPCP+shBUBR1#3, P=0.0068 vs Mock, 0.0058 vs UPCP, replicate 3): 41%
Relative percentage of SA-β-gal positive cells (HGADFN003 cells; UPCP, Mock 48, 52, 55, P=0.0005 vs Mock, replicate 1): 25%
Relative percentage of SA-β-gal positive cells (HGADFN003 cells; UPCP, Mock 48, 52, 55, P=0.0005 vs Mock, replicate 2): 28%
Relative percentage of SA-β-gal positive cells (HGADFN003 cells; UPCP, Mock 48, 52, 55, P=0.0005 vs Mock, replicate 3): 29%
Relative percentage of Ki67 positive cells (HGADFN003 cells; UPCP+shBUBR1#3, P=0.0314 vs Mock, 0.0222 vs UPCP, replicate 1): 52%
Relative percentage of Ki67 positive cells (HGADFN003 cells; UPCP+shBUBR1#3, P=0.0314 vs Mock, 0.0222 vs UPCP, replicate 2): 49%
Relative percentage of Ki67 positive cells (HGADFN003 cells; UPCP+shBUBR1#3, P=0.0314 vs Mock, 0.0222 vs UPCP, replicate 3): 43%
Relative percentage of Ki67 positive cells (HGADFN003 cells; UPCP, Mock 35, 41, 37, P=0.0029 vs Mock, replicate 1): 65%
Relative percentage of Ki67 positive cells (HGADFN003 cells; UPCP, Mock 35, 41, 37, P=0.0029 vs Mock, replicate 2): 58%
Relative percentage of Ki67 positive cells (HGADFN003 cells; UPCP, Mock 35, 41, 37, P=0.0029 vs Mock, replicate 3): 71%
Relative percentage of aneuploid cells (HGADFN003 cells; UPCP+shBUBR1#3, P=0.0641 vs Mock, 0.0036 vs UPCP, replicate 1): 25%
Relative percentage of aneuploid cells (HGADFN003 cells; UPCP+shBUBR1#3, P=0.0641 vs Mock, 0.0036 vs UPCP, replicate 2): 27%
Relative percentage of aneuploid cells (HGADFN003 cells; UPCP+shBUBR1#3, P=0.0641 vs Mock, 0.0036 vs UPCP, replicate 3): 24%
Relative percentage of aneuploid cells (HGADFN003 cells; UPCP, Mock 28, 36, 31, P=0.005 vs Mock, replicate 1): 19%
Relative percentage of aneuploid cells (HGADFN003 cells; UPCP, Mock 28, 36, 31, P=0.005 vs Mock, replicate 2): 16%
Relative percentage of aneuploid cells (HGADFN003 cells; UPCP, Mock 28, 36, 31, P=0.005 vs Mock, replicate 3): 18%
senescence remission by UPCP after BUBR1 depletion (HGADFN003 cells; HGADFN003, BUBR1 shRNA (shBUBR1#3)): depletion of BUBR1 significantly antagonized the senescence remission mediated by UPCP
SA-β-gal positive cells (senescent IMR90 cells; BLM (bleomycin 20 μg/mL 2 h), replicate 1): 71.6418%
SA-β-gal positive cells (senescent IMR90 cells; BLM (bleomycin 20 μg/mL 2 h), replicate 2): 81.25%
SA-β-gal positive cells (senescent IMR90 cells; BLM (bleomycin 20 μg/mL 2 h), replicate 3): 74.0741%
SA-β-gal positive cells (senescent IMR90 cells; Dox (doxorubicin 100 nM twice), replicate 1): 76.4706%
SA-β-gal positive cells (senescent IMR90 cells; Dox (doxorubicin 100 nM twice), replicate 2): 84.6154%
SA-β-gal positive cells (senescent IMR90 cells; Dox (doxorubicin 100 nM twice), replicate 3): 66.1539%
SA-β-gal positive cells (senescent IMR90 cells; Eto (etoposide 10 μM 48 h), replicate 1): 80.4348%
SA-β-gal positive cells (senescent IMR90 cells; Eto (etoposide 10 μM 48 h), replicate 2): 71.7949%
SA-β-gal positive cells (senescent IMR90 cells; Eto (etoposide 10 μM 48 h), replicate 3): 70.9091%
rescue of phenotype of DNA damage-induced senescent cells (senescent IMR90 cells; IMR90, 10 days after bleomycin, doxorubicin, ionizing radiation or etoposide): failed to rescue the progeria phenotype of these cells
SA-β-gal positive cells (senescent IMR90 cells; IR (10 Gy), replicate 1): 77.4193%
SA-β-gal positive cells (senescent IMR90 cells; IR (10 Gy), replicate 2): 75.5814%
SA-β-gal positive cells (senescent IMR90 cells; IR (10 Gy), replicate 3): 70.4545%
